PMC5942814 (PLoS ONE, 2018)
Several values for one entry are separate records, joined by “and”; a condition that tells them apart may be missing. Identical values can stand only once. Entries after “also recorded” stand apart in the source; their conditions may differ.

Tests used:
[1] = Pharmacokinetics of SNF472 administered as a s.c. bolus; format: in vivo, Wistar rats; conditions: rat
Procedure: (§1) Due to the limitations in obtaining many sequential blood samples from rats, blood samples were only acquired from each animal at three of the nine time-points. Consequently, the area under the curves (AUCs) could not be determined for individual animals and mean AUCs were therefore used to assess dose linearity.
(§2) Following sampling, blood was collected into K3EDTA anticoagulant tubes, centrifuged at 3,500 rpm for 10 min at 4 °C and stored at -80°C pending quantification via UPLC®-MS using the method described by Tur et al.

[2] = test system: cardiovascular calcification in adenine-induced uremic rats; assay: Inhibition of calcification in a rat model of uremia (adenine + α-calcidol); format: in vivo, Wistar rats
Procedure: as §2
All rats were treated daily with adenine (600 mg/kg, suspended in 1% carboxymethyl cellulose, administered orally) for the first 10 days to induce uremia and α-calcidol (300 ng/kg in olive oil, administered orally) three times a week from days 11 to 19 to accelerate and homogenize the development of cardiovascular calcification. On day 19, all surviving animals were sacrificed and blood and tissue samples collected. Blood was obtained via heart puncture in anesthetized animals immediately before sacrifice.
(§3) Lyophilized organs were digested using a 1:1 HNO3:HClO4 mixture in a dry bath incubator for 2–4 h at 180°C and subsequently diluted with MilliQ™ water to a final volume of 10 ml. Calcium and phosphorus contents in serum, heart and aorta were quantified via inductively coupled plasma optical emission spectrometry (ICP-OES) (Perkin-Elmer SL, Optima 5300DV spectrometer)[26].
Alkaline phosphatase (ALP) activity (ref. OSR6103), and creatinine (OSR6178) and urea (ref. OSR6134) levels were determined in serum using the Beckman Coulter assay kit (Brea, CA, USA).

[3] = test system: vitamin D3-induced cardiovascular calcification (progression); assay: Inhibition of calcification progression induced by vitamin D; format: in vivo, Sprague Dawley rats; conditions: 10 and 60 mg/kg s.c. daily
Procedure: Experiments were performed with 48 male Crl:OF Sprague Dawley rats weighing ± 250 g (Charles River Laboratories International, Inc. L’Arbresle, France) divided into 6 groups. Calcification was induced by 3 consecutive daily s.c. administrations of 100 kIU/kg vitamin D3 (Fort Dodge, Girona, Spain). Four groups were used as controls to evaluate calcification progression throughout the 14 days of study. The animals received daily s.c. injections of vehicle (NaCl 0.9%), starting 5 days after calcification induction. […] Group 1 animals were sacrificed on day 5 to evaluate calcification. Groups 2 and 3 were sacrificed on days 9 and 12, respectively, to follow the progression of calcification in control animals. Groups 4, 5 and 6 were sacrificed on day 14. Blood was obtained via heart puncture in anesthetized animals immediately before sacrifice.
as §3, with “Aorta and heart were removed at sacrifice, lyophilized for 24 h and weighed. Lyophilized” for “Lyophilized”

[4] = Pharmacokinetics of SNF472 via 4 h i.v. infusion in adenine-induced uremic rats; format: in vivo, Wistar rats; conditions: for AUC(0→t) / Cmax: Day 13 (uremic) rats
Procedure: (§4) The experiment was performed based on a model described by Terai and co-workers[27]. Uremia was induced in 10 male Wistar rats weighing ± 275 g via 10 daily oral administrations of 600 mg/kg adenine (days 1–10). Two further oral doses of 300 ng/kg α-calcidol were administered on days 11 and 13.
as §1, §2

[5] = Pharmacokinetics of SNF472 via 4 h i.v. infusion in control rats; format: in vivo, Wistar rats; conditions: for AUC(0→t) / Cmax: Day 1 (control) rats
Procedure: as §4, §1, §2

[6] = Pharmacokinetics of SNF472 administered as an i.v. bolus; format: in vivo, Wistar rats; conditions: for C0: rat plasma phytate, extrapolated concentration at time 0
Procedure: Blood was collected at 5, 15, 60 and 120 min.
as §1, §2

[7] = test system: vitamin D3-induced cardiovascular calcification; assay: Prevention of calcification induced by vitamin D; format: in vivo, Sprague Dawley rats
Procedure: Experiments were performed with 20 male Crl:OF Sprague Dawley rats weighing ± 350 g (Charles River Laboratories International, Inc. L’Arbresle, France). Animals were divided into four groups. […] Calcification was induced by 5 consecutive daily oral administrations of 75 kIU/kg vitamin D3 (Fort Dodge, Girona, Spain), starting on day 3 of treatment. Five sham-treated animals with no calcification induction served as controls. Rats were sacrificed 14 days after induction of calcification, and organs collected. Blood was obtained via heart puncture in anesthetized animals immediately before sacrifice.
as §3, with “Aorta and heart were removed at sacrifice, lyophilized for 24 h and weighed. Lyophilized” for “Lyophilized”

[8] = 50 mg/kg 4 h i.v. infusion daily, uremic rats
[9] = 4 h i.v. infusion 10 mg/kg, uremic rats
[10] = single i.v. bolus 10 mg/kg, rat
[11] = 1 mg/kg i.v. every other day (e.o.d.)

SMILES: O=P([O-])(O)OC1C(OP(=O)([O-])O)C(OP(=O)([O-])O)C(OP(=O)([O-])O)C(OP(=O)([O-])O)C1OP(=O)([O-])O.[Na+].[Na+].[Na+].[Na+].[Na+].[Na+] (centres unmarked) [SNF472, hexasodium salt of myo-inositol hexaphosphate]
- AUC(0→t) ([1]; single s.c. bolus 10 mg/kg): 1633 ng·h/mL
- Cl/F ([1]; single s.c. bolus 10 mg/kg): 3.67 mL/min/kg
- Cmax ([1]; single s.c. bolus 10 mg/kg): 4876 ng/mL
- MRT (0→∞) ([1]; single s.c. bolus 10 mg/kg): 28.2 min
- AUC(0→t) ([1]; single s.c. bolus 30 mg/kg): 32646 ng·h/mL
- Cl/F ([1]; single s.c. bolus 30 mg/kg): 4.5 mL/min/kg
- Cmax ([1]; single s.c. bolus 30 mg/kg): 61014 ng/mL
- MRT (0→∞) ([1]; single s.c. bolus 30 mg/kg): 28.8 min
- AUC(0→t) ([1]; single s.c. bolus 100 mg/kg): 139603 ng·h/mL
- Cl/F ([1]; single s.c. bolus 100 mg/kg): 3.5 mL/min/kg
- Cmax ([1]; single s.c. bolus 100 mg/kg): 263264 ng/mL
- MRT (0→∞) ([1]; single s.c. bolus 100 mg/kg): 29.4 min
- mortality (animals died) ([2]; 50 mg/kg 4 h i.v. infusion daily, 12 uremic rats per group, 4 died in control group): 7 animals
- inhibition of development of calcification in aorta [2, 8]: up to 80%
- mortality vs control group [2, 8]: no significant differences
- serum creatinine vs control [2, 8]: No significant differences
- serum urea vs control [2, 8]: No significant differences
- circulating (serum) phosphorus ([2]; 50 mg/kg 4 h i.v. infusion daily, uremic rats, control 17.6 mg/dL, not significant): 19.9 mg/dL
- mean serum ALP activity ([2]; 50 mg/kg 4 h i.v. infusion daily, uremic rats, control 295 U/L, not significant): 725 U/L
- median heart calcium content ([2]; 50 mg/kg 4 h i.v. infusion daily, uremic rats, control median 1.6 mg/g): 0.2 mg/g
- median aorta calcium content ([2]; 50 mg/kg 4 h i.v. infusion daily, uremic rats, control median 65.0 mg/g): 12.8 mg/g
- reduction in serum calcium levels ([2]; 50 mg/kg 4 h i.v. infusion daily, uremic rats, significant vs control): 17%
- signs of hypocalcemia (dyspnea, muscle spasms, convulsions) ([2]; 50 mg/kg 4 h i.v. infusion, uremic rats): no signs of hypocalcemia
- circulating phytate levels ([2]; non-uremic animals (day 0), end of 4 h i.v. infusion 50 mg/kg): ~ 150,000 ng/mL
- decrease in circulating phytate ([2]; uremic animals, during and after 4 h of SNF472 infusion): 90%
- serum calcium levels [3]: not significantly affected
- serum phosphorus levels on day 14 vs control [3]: No differences
- progression of cardiac calcification ([3]; started 5 days after calcification induction): completely blocked; also recorded: completely inhibited further progression
- AUC(0→t) ([4]; 4 h i.v. infusion 10 mg/kg): 3877 ng·h/mL
- Cmax ([4]; 4 h i.v. infusion 10 mg/kg, level at 240 min): 1877 ng/mL
- time at which low-level steady state was observed [4, 9]: 60 min
- time at which maximum levels were reached [4, 9]: ≤ 30 min
- AUC(0→t) ([4]; 4 h i.v. infusion 50 mg/kg): 51665 ng·h/mL
- Cmax ([4]; 4 h i.v. infusion 50 mg/kg): 16218 ng/mL
- AUC(0→t) ([5]; 4 h i.v. infusion 10 mg/kg): 16027 ng·h/mL
- Cmax ([5]; 4 h i.v. infusion 10 mg/kg, maximum at 240 min): 5548 ng/mL
- steady state during the infusion period ([5]; 4 h i.v. infusion 10 mg/kg, control rats): steady state was not achieved
- AUC(0→t) ([5]; 4 h i.v. infusion 50 mg/kg): 145212 ng·h/mL
- Cmax ([5]; 4 h i.v. infusion 50 mg/kg): 45141 ng/mL
- time at which steady state was reached ([5]; 4 h i.v. infusion 50 mg/kg, control rats): 60 min
- AUC(0→t) ([6]; single i.v. bolus 1 mg/kg, rat): 3491 ng·h/mL
- Cl ([6]; single i.v. bolus 1 mg/kg, rat): 4.83 mL/min/kg
- MRT (0→∞) ([6]; single i.v. bolus 1 mg/kg, rat): 99 min
- C0 ([6]; single i.v. bolus 1 mg/kg): 36775 ng/mL
- AUC(0→t) ([6]; single i.v. bolus 5 mg/kg, rat): 19234 ng·h/mL
- MRT (0→∞) ([6]; single i.v. bolus 5 mg/kg, rat): 19.8 min
- C0 ([6]; single i.v. bolus 5 mg/kg): 84561 ng/mL
- AUC(0→t) [6, 10]: 38752 ng·h/mL
- MRT (0→∞) [6, 10]: 11.4 min
- C0 ([6]; single i.v. bolus 10 mg/kg): 156750 ng/mL
- inhibition of aorta calcium vs vehicle ([7]; 1 mg/kg i.v. daily): 60%
- inhibition of heart calcium vs vehicle ([7]; 1 mg/kg i.v. daily): 74% and 74.4%
- serum phosphorus ([7]; 1 mg/kg i.v. daily, control 14.75 mg/dL, significantly increased): 18.96 mg/dL
- mean heart calcium content ([7]; 1 mg/kg i.v. daily, vitamin D3 75 kIU/kg p.o. x5, vehicle 3.35 mg/g): 1.06 mg/g
- mean aortic calcium content ([7]; 1 mg/kg i.v. daily, vitamin D3 75 kIU/kg p.o. x5, vehicle 91.1 mg/g): 36.8 mg/g
- serum calcium ([7]; 1 mg/kg i.v. daily, vs sham (8.72 mg/dL) and vitamin D control (10.50 mg/dL)): statistically significant higher levels than sham and control groups
- inhibition of aorta calcium vs vehicle [7, 11]: 56.2%
- inhibition of heart calcium vs vehicle [7, 11]: 70.4%
- inhibition of CVC in non-uremic rats ([7]; non-uremic rats, vitamin D3 model): 60–70%
